Measurements as given in the supplement of paper PMC10307832.

How the values were obtained:
Assay in all cases: relative viability (nuclei count vs DMSO), 5 days (fraction); higher = more cells survive
KIN001-266 + Trametinib = compound: CCN1CCC(CC1)N2C=C(N=N2)CNC3=CC4=C(C(=CN=C4C(=C3)Cl)C#N)NC5=CC(=C(C=C5)F)Cl [KIN001-266] + CC(=O)Nc1cccc(-n2c(=O)n(C3CC3)c(=O)c3c(Nc4ccc(I)cc4F)n(C)c(=O)c(C)c32)c1 [Trametinib] (partner 0.02 µM)
In short: (§1)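 After 5 days of treatment, lung cancer cells in 1536-well plates were fixed and stained in a single step (final 0.05% Triton X-100, 1% formaldehyde, 1 ug/ml Hoechst) and their nuclei counted on 4× images. Treatment had been applied by pin tool the day after seeding as one drug alone or as a fixed anchor-drug dose with five library-drug doses (not always all listed) in √10 steps. Relative viability is the nuclei count of treated wells divided by that of vehicle wells, and values are medians of duplicate plates.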

KIN001-266 + Bortezomib = compound: CCN1CCC(CC1)N2C=C(N=N2)CNC3=CC4=C(C(=CN=C4C(=C3)Cl)C#N)NC5=CC(=C(C=C5)F)Cl [KIN001-266] + CC(C)C[C@H](NC(=O)[C@H](Cc1ccccc1)NC(=O)c1cnccn1)B(O)O [Bortezomib] (partner 0.002 µM)
In short: as §1

KIN001-266 + Pictilisib = compound: CCN1CCC(CC1)N2C=C(N=N2)CNC3=CC4=C(C(=CN=C4C(=C3)Cl)C#N)NC5=CC(=C(C=C5)F)Cl [KIN001-266] + CS(=O)(=O)N1CCN(Cc2cc3nc(-c4cccc5[nH]ncc45)nc(N4CCOCC4)c3s2)CC1 [Pictilisib] (partner 1 µM)
In short: as §1

KIN001-266 + Olaparib = compound: CCN1CCC(CC1)N2C=C(N=N2)CNC3=CC4=C(C(=CN=C4C(=C3)Cl)C#N)NC5=CC(=C(C=C5)F)Cl [KIN001-266] + O=C(c1cc(Cc2n[nH]c(=O)c3ccccc23)ccc1F)N1CCN(C(=O)C2CC2)CC1 [Olaparib] (partner 8 µM)
In short: as §1

| Cell Line | relative viability (KIN001-266 + Trametinib; first compound 0.08 µM) | relative viability (KIN001-266 + Trametinib; first compound 0.253 µM) | relative viability (KIN001-266 + Trametinib; first compound 0.8 µM) | relative viability (KIN001-266 + Trametinib; first compound 2.53 µM) | relative viability (KIN001-266 + Trametinib; first compound 8 µM) | relative viability (KIN001-266 + Bortezomib; first compound 0.08 µM) | relative viability (KIN001-266 + Bortezomib; first compound 0.253 µM) | relative viability (KIN001-266 + Bortezomib; first compound 0.8 µM) | relative viability (KIN001-266 + Bortezomib; first compound 2.53 µM) | relative viability (KIN001-266 + Bortezomib; first compound 8 µM) | relative viability (KIN001-266 + Pictilisib; first compound 0.08 µM) | relative viability (KIN001-266 + Pictilisib; first compound 0.253 µM) | relative viability (KIN001-266 + Pictilisib; first compound 0.8 µM) | relative viability (KIN001-266 + Pictilisib; first compound 2.53 µM) | relative viability (KIN001-266 + Pictilisib; first compound 8 µM) | relative viability (KIN001-266 + Olaparib; first compound 0.08 µM) | relative viability (KIN001-266 + Olaparib; first compound 0.253 µM) | relative viability (KIN001-266 + Olaparib; first compound 0.8 µM) | relative viability (KIN001-266 + Olaparib; first compound 2.53 µM) | relative viability (KIN001-266 + Olaparib; first compound 8 µM) |
| --- | --- | --- | --- | --- | --- | --- | --- | --- | --- | --- | --- | --- | --- | --- | --- | --- | --- | --- | --- | --- |
| 201T | 0.74 | 0.724 | 0.686 | 0.708 | 0.754 | 1.09 | 0.941 | 1.08 | 1.06 | 1.16 | 0.768 | 0.746 | 0.662 | 0.64 | 0.721 | 0.822 | 0.852 | 0.809 | 0.855 | 0.816 |
| A549 |  |  |  |  |  |  |  |  |  |  | 0.584 | 0.527 | 0.519 | 0.584 | 0.393 | 0.367 | 0.279 | 0.297 | 0.347 | 0.305 |
| A-427 | 0.823 | 0.73 | 0.711 | 0.618 | 0.658 | 1.06 | 1 | 0.955 | 0.982 | 0.817 | 0.778 | 0.735 | 0.582 | 0.72 | 0.754 | 0.723 | 0.789 | 0.726 | 0.615 | 0.639 |
| ABC-1 |  |  |  |  |  | 0.269 | 0.344 | 0.346 | 0.288 | 0.274 | 0.864 | 0.927 | 0.926 | 0.65 | 0.547 | 0.737 | 0.583 | 0.767 | 0.795 | 0.863 |
| BEN | 1.01 | 1.01 | 1.07 | 1.03 | 1.15 | 0.899 | 0.698 | 0.885 | 0.909 | 0.921 | 0.632 | 0.615 | 0.589 | 0.54 | 0.632 | 1 | 0.988 | 1.12 | 1.17 | 0.977 |
| CAL-12T | 0.357 | 0.442 | 0.351 | 0.293 | 0.37 | 1.04 | 0.976 |  | 1.12 | 0.97 | 0.698 | 0.539 |  | 0.31 | 0.47 | 0.785 | 0.732 | 0.663 | 0.652 | 0.633 |
| COR-L23 | 0.634 | 0.667 | 0.651 | 0.512 | 0.486 | 0.966 | 0.994 | 0.927 | 0.857 | 0.777 | 0.88 | 0.749 | 0.697 | 0.649 | 0.478 | 0.372 | 0.367 | 0.345 | 0.293 | 0.294 |
| COR-L 105 | 0.42 | 0.517 | 0.417 | 0.43 | 0.455 | 0.886 | 0.884 | 0.719 | 0.768 | 0.602 | 0.422 | 0.44 | 0.352 | 0.452 | 0.43 | 0.729 | 0.619 | 0.651 | 0.521 | 0.566 |
| Calu-6 |  |  |  |  |  | 1.11 | 1.11 | 1.05 | 0.948 | 0.682 | 0.933 | 0.9 | 1.08 | 0.805 | 0.765 | 0.649 | 0.653 | 0.587 | 0.542 | 0.365 |
| ChaGo-K-1 | 0.914 | 0.915 | 0.87 | 0.637 | 0.459 | 1.11 | 1.17 |  | 1.09 | 1.1 | 1.04 | 0.852 |  | 0.844 | 0.703 | 0.401 | 0.422 | 0.301 | 0.282 | 0.227 |
| EBC-1 |  |  |  |  |  | 0.566 | 0.502 | 0.477 | 0.446 | 0.364 | 0.416 | 0.519 | 0.553 | 0.576 | 0.329 | 0.76 | 0.72 | 0.635 | 0.649 | 0.511 |
| EKVX | 0.336 | 0.312 | 0.303 | 0.412 | 0.344 | 1.12 | 1 | 1.01 | 1.06 | 1.01 | 0.386 | 0.417 | 0.425 | 0.405 | 0.4 | 0.914 | 0.899 | 0.844 | 0.78 | 0.865 |
| EMC-BAC-2 | 0.896 | 0.958 | 0.842 | 0.868 | 0.855 | 1.07 | 1.11 | 1.02 | 1.04 | 1.04 | 0.551 | 0.55 | 0.505 | 0.523 | 0.513 | 0.546 | 0.519 | 0.449 | 0.437 | 0.46 |
| EPLC-272H | 0.295 | 0.273 | 0.284 | 0.27 | 0.275 | 1.19 | 0.949 | 0.751 | 0.839 | 0.605 | 0.349 | 0.336 | 0.305 | 0.265 | 0.289 | 0.885 | 0.869 | 1.08 | 0.643 | 0.273 |
| H3255 | 0.545 | 0.581 | 0.643 | 0.659 | 0.484 | 0.899 | 0.775 | 0.838 | 0.788 | 0.699 | 0.523 | 0.518 | 0.49 | 0.516 | 0.341 | 0.583 | 0.55 | 0.565 | 0.517 | 0.455 |
